According to ChEMBL document CHEMBL1130980, “Novel antiproliferative falcarindiol furanocoumarin ethers from the root of Angelica japonica” (1998):
Converted amounts (≈) assume the structure as drawn.

Experiment: Inhibitory activity in MTT assay against MK-I cell
Type: functional
Conditions: Homo sapiens, read-out: ED50 (the source's name)

| SMILES | EC50 [µg/mL] |
| --- | --- |
| C=C[C@H](O)C#CC#CC(/C=C\CCCCCCC)OC(C)=O (some centres undefined) | 3.2 (≈ 10.6 µM) |
| C=CC(O)C#CC#CC(O)/C=C\C(O)CCCCCC (centres undefined) | 2.2 (≈ 7.96 µM) |
| C=CC(O)C#CC#C[C@@H](O)/C=C\CCCCCCC (single isomer, unassigned) [FALCARINDIOL] | 3.2 (≈ 12.3 µM) |
| C=C[C@H](O)C#CC#CC/C=C\CCCCCCC [FALCARINOL] | 0.3 (≈ 1.23 µM) |
